Results on 24 compounds are retold here after patent publication US20200131132A1, “FARNESOID X RECEPTOR AGONISTS AND USES THEREOF” (Metacrine, Inc., priority 2017, published 2020).

The experiment addresses T1, hFXR (Homo sapiens, UniProt Q96RI1).
T1 construct: expressed in transfected cells; host or cells: CV-1 cells
T1 sequence (Q96RI1 1-486): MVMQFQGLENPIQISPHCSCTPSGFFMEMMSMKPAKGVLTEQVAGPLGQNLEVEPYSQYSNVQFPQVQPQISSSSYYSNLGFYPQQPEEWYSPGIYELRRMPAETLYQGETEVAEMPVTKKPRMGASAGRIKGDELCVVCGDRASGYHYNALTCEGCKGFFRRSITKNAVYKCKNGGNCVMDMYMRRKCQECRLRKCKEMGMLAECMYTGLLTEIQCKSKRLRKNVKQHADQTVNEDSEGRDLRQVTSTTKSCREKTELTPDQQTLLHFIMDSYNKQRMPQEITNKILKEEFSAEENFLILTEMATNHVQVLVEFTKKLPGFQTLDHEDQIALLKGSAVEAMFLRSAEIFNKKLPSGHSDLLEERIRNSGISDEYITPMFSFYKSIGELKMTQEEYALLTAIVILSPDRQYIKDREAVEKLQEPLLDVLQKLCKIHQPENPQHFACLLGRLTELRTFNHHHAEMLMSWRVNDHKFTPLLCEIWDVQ
T1 sequence (P19793 1-462 partner): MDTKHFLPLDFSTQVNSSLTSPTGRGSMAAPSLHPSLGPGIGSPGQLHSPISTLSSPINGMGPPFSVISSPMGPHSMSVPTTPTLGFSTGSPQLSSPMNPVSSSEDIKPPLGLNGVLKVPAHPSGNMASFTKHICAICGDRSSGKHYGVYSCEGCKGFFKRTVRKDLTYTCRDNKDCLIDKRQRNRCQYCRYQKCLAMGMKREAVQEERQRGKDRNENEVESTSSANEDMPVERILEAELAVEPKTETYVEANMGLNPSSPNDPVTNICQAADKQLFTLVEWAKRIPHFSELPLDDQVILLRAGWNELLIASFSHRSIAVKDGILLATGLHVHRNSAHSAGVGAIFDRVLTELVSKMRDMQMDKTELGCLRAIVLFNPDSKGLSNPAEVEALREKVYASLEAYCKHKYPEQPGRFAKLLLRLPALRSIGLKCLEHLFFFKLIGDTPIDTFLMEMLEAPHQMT
The experiment in a line: In Vitro FXR Assay (TK). It is filed as cell-based. The settings on record: CV-1 cells transfected with hFXR, hRXR, TK-ECRE-luc and pCMX-YFP; compounds incubated 18 hrs; luminescence. Here is the method:
CV-1 cells were seeded at a density of 2,000,000 cells in a T175 flask with DMEM+10% charcoal double-stripped FBS and incubated at 37° C. in 5% CO2 for 18 h (O/N).
After 18 h of incubation, the medium in the T175 flask was changed with fresh DMEM+10% charcoal super-stripped serum. In a polypropylene tube, 2500 μL OptiMEM (Life Technologies, Cat #31985-062) was combined with expression plasmids for hFXR, hRXR, TK-ECRE-luc and pCMX-YFP. The tube was then briefly vortexed and incubated at room temperature for 5 minutes. Transfection reagent (X-tremeGENE HP from Roche, Cat #06 366 236 001) was added to the OptiMEM/plasmid mixture vortexed and incubated at room temperature for 20 minutes. Following incubation, the transfection reagent/DNA mixture complex was added to cells in the T175 flask and the cells were incubated at 37° C. in 5% CO2 for 18 h (O/N).
Compounds were serially diluted in DMSO and added to transfected CV-1 cells. The cells were then incubated for 18 hrs. The next day cells were lysed and examined for luminescence.
`COc1ccc(-c2ccc(CN(C(=O)CC(C)(C)C)c3nccc4c3CCCC4)cc2)cc1C` [Compound 4.03, N-((4′-Methoxy-3′-methyl-[1,1′-biphenyl]-4-yl)methyl)-3,3-dimethyl-N-(5,6,7,8-tetrahydroisoquinolin-1-yl)butanamide]: the EC50 was in the range of 1000 to 10000 nM.

In turn, `COCCCOc1ccc2c(N(Cc3ccc(-c4ccc(OC)c(C)c4)cc3)C(=O)CC(C)(C)C)nccc2c1` [Compound 8.08, N-((4′-Methoxy-3′-methyl-[1,1′-biphenyl]-4-yl)methyl)-N-(6-(3-methoxypropoxy)isoquinolin-1-yl)-3,3-dimethylbutanamide] registered an EC50 of at most 1000 nM.

The compound `COc1ccc(-c2ccc(CN(C(=O)CC(C)(C)C)c3nccc4cc(-c5nccs5)ccc34)cc2)cc1C` [Compound 14.01, N-((4′-Methoxy-3′-methyl-[1,1′-biphenyl]-4-yl)methyl)-3,3-dimethyl-N-(6-(thiazol-2-yl)isoquinolin-1-yl)butanamide] displayed an EC50 of at most 1000 nM.

In the case of `COc1ccc(-c2ccc(CN(C(=O)CC(C)(C)C)c3cncc4ccccc34)cc2)cc1C` [Compound 5, N-(Isoquinolin-4-yl)-N-((4′-methoxy-3′-methyl-[1,1′-biphenyl]-4-yl)methyl)-3,3-dimethylbutanamide], the EC50 was in the range of 1000 to 10000 nM.

The compound `COc1ccc(-c2ccc(CN(C(=O)CC(C)(C)C)c3nccc4cc(O)ccc34)cc2)cc1C` [Compound 7, N-(6-Hydroxyisoquinolin-1-yl)-N-((4′-methoxy-3′-methyl-[1,1′-biphenyl]-4-yl)methyl)-3,3-dimethylbutanamide] displayed an EC50 of at most 1000 nM.

`COc1ccc(-c2ccc(CN(C(=O)CC(C)(C)C)c3nccc4cc(N5CCOCC5)ccc34)cc2)cc1C` [Compound 6.06, N-((4′-Methoxy-3′-methyl-[1,1′-biphenyl]-4-yl)methyl)-3,3-dimethyl-N-(6-morpholinoisoquinolin-1-yl)butanamide] gave an EC50 of at most 1000 nM.

`COC(=O)c1cc(CN(C(=O)CC(C)(C)C)c2nccc3cc(OC)ccc23)ccc1-c1ccc(OC)c(C)c1` [Compound 20.02, Methyl 4′-methoxy-4-((N-(6-methoxyisoquinolin-1-yl)-3,3-dimethylbutanamido)methyl)-3′-methyl-[1,1′-biphenyl]-2-carboxylate] had an EC50 of at most 1000 nM.

Consider `COc1ccc(-c2ccc(CN(C(=O)CC(C)(C)C)c3nccc4ccc(Br)cc34)cc2)cc1C` [Compound 4.06, N-(7-Bromoisoquinolin-1-yl)-N-((4′-methoxy-3′-methyl-[1,1′-biphenyl]-4-yl)methyl)-3,3-dimethylbutanamide], for which the half-maximal effective concentration (EC50) is at most 1000 nM.

With `COc1ccc(-c2ccc(CN(C(=O)CC(C)(C)C)c3nccc4cc(CCO)ccc34)cc2)cc1C` [Compound 25, N-(6-(2-Hydroxyethyl)isoquinolin-1-yl)-N-((4′-methoxy-3′-methyl-[1,1′-biphenyl]-4-yl)methyl)-3,3-dimethylbutanamide], the half-maximal effective concentration (EC50) is at most 1000 nM.

Take `COc1ccc(-c2ccc(CN(C(=O)CC(C)(C)C)c3nccc4cc(CC#N)ccc34)cc2)cc1C` [Compound 27, N-(6-(Cyanomethyl)isoquinolin-1-yl)-N-((4′-methoxy-3′-methyl-[1,1′-biphenyl]-4-yl)methyl)-3,3-dimethylbutanamide]: the EC50 is at most 1000 nM.

For the compound `COc1ccc(-c2ccc(CN(C(C)=O)c3nccc4cc(C(C)(C)O)ccc34)cc2)cc1C` [Compound 18, N-(6-(2-Hydroxypropan-2-yl)isoquinolin-1-yl)-N-((4′-methoxy-3′-methyl-[1,1′-biphenyl]-4-yl)methyl)acetamide], the EC50 was over 10000 nM.

Turning to `COc1ccc2c(N(Cc3ccc(-c4ccc(OC)c(C)c4)cc3)C(=O)CC(C)(C)C)nccc2c1` [Compound 4.02, N-((4′-Methoxy-3′-methyl-[1,1′-biphenyl]-4-yl)methyl)-N-(6-methoxyisoquinolin-1-yl)-3,3-dimethylbutanamide], the concentration for a half-maximal effect (EC50) is at most 1000 nM.

`COc1ccc(-c2ccc(CN(C(=O)CC(C)(C)C)c3nccc4cc(OCCCN(C)C)ccc34)cc2)cc1C` [Compound 8.12, N-(6-(3-(Dimethylamino)propoxy)iso-quinolin-1-yl)-N-((4′-methoxy-3′-methyl-[1,1′-biphenyl]-4-yl)methyl)-3,3-dimethylbutanamide] gave an EC50 of 1000 to 10000 nM.

For `COCc1ccc2c(N(Cc3ccc(-c4ccc(OC)c(C)c4)cc3)C(=O)CC(C)(C)C)nccc2c1` [Compound 9.03, N-((4′-Methoxy-3′-methyl-[1,1′-biphenyl]-4-yl)methyl)-N-(6-(methoxymethyl)isoquinolin-1-yl)-3,3-dimethylbutanamide], the EC50 is at most 1000 nM.

The compound `COC(=O)COCc1ccc2c(N(Cc3ccc(-c4ccc(OC)c(C)c4)cc3)C(=O)CC(C)(C)C)nccc2c1` [Compound 9.02, Methyl 2-((1-(N-((4′-methoxy-3′-methyl-[1,1′-biphenyl]-4-yl)methyl)-3,3-dimethylbutanamido)isoquinolin-6-yl)methoxy)acetate] gave an EC50 of at most 1000 nM.

The compound `COc1ccc(-c2ccc(CN(C(=O)CC(C)(C)C)c3nccc4cc(C(=O)N(C)C)ccc34)cc2)cc1C` [Compound 19, 1-(N-((4′-Methoxy-3′-methyl-[1,1′-biphenyl]-4-yl)methyl)-3,3-dimethylbutanamido)-N,N-dimethylisoquinoline-6-carboxamide] displayed an EC50 of at most 1000 nM.

As for `COc1ccc(-c2ccc(CN(C(=O)CC(C)(C)C)c3nccc4cc(Br)ccc34)cc2)cc1C` [Compound 4, N-(6-Bromoisoquinolin-1-yl)-N-((4′-methoxy-3′-methyl-[1,1′-biphenyl]-4-yl)methyl)-3,3-dimethylbutanamide], the EC50 is at most 1000 nM.

`COc1ccc(-c2ccc(CN(C(=O)CC(C)(C)C)c3nccc4cc(N(C)CCO)ccc34)cc2)cc1C` [Compound 6.01, N-(6-((2-Hydroxyethyl)(methyl)amino)iso-quinolin-1-yl)-N-((4′-methoxy-3′-methyl-[1,1′-biphenyl]-4-yl)methyl)-3,3-dimethylbutanamide]: the half-maximal effective concentration (EC50) is at most 1000 nM.

Take `COc1ccc(-c2ccc(CN(C(=O)CC(C)(C)C)c3nccc4c(C#N)cccc34)cc2)cc1C` [Compound 13.02, N-(5-Cyanoisoquinolin-1-yl)-N-((4′-methoxy-3′-methyl-[1,1′-biphenyl]-4-yl)methyl)-3,3-dimethylbutanamide]: the EC50 was over 10000 nM.

`COc1ccc(-c2ccc(CN(C(=O)CC(C)(C)C)c3nccc4cc(N5CCC(F)C5)ccc34)cc2)cc1C` (stereo not drawn) [Compound 6.12, N-(6-(3-Fluoropyrrolidin-1-yl)isoquinolin-1-yl)-N-((4′-methoxy-3′-methyl-[1,1′-biphenyl]-4-yl)methyl)-3,3-dimethylbutanamide]: the EC50 is at most 1000 nM.

Compound `COc1ccc(-c2ccc(CN(C(=O)CC(C)(C)C)c3nccc4cc(OCC(=O)N(C)C)ccc34)cc2)cc1C` [Compound 8.02, N-(6-(2-(Dimethylamino)-2-oxoethoxy)isoquinolin-1-yl)-N-((4′-methoxy-3′-methyl-[1,1′-biphenyl]-4-yl)methyl)-3,3-dimethylbutanamide] showed an EC50 of at most 1000 nM.

In the case of `CCOc1ccc2c(N(Cc3ccc(-c4ccc(OC)c(C)c4)cc3)C(=O)CC(C)(C)C)nccc2c1` [Compound 11, N-(6-Ethoxyisoquinolin-1-yl)-N-((4′-methoxy-3′-methyl-[1,1′-biphenyl]-4-yl)methyl)-3,3-dimethylbutanamide], the EC50 is at most 1000 nM.

`COc1ccc(-c2ccc(CN(C(=O)CC(C)(C)C)c3nccc4cc(C(C)O)ccc34)cc2)cc1C` (stereo not drawn) [Compound 26, N-(6-(1-Hydroxyethyl)isoquinolin-1-yl)-N-((4′-methoxy-3′-methyl-[1,1′-biphenyl]-4-yl)methyl)-3,3-dimethylbutanamide] registered an EC50 of at most 1000 nM.

Compound `COc1ccc(-c2ccc(CN(C(=O)CC(C)(C)C)c3nccc4cc(OCC(=O)O)ccc34)cc2)cc1C` [Compound 29, 2-((1-(N-((4′-Methoxy-3′-methyl-[1,1′-biphenyl]-4-yl)methyl)-3,3-dimethylbutanamido)isoquinolin-6-yl)oxy)acetic acid] registered an EC50 of over 10000 nM.

For orientation: EC50 means the concentration needed to bring the measured effect to its halfway point.
